In patent publication US20240317772A1, “SESQUITERPENE DERIVATIVE AND PHARMACEUTICAL COMPOSITION THEREOF, AND THEIR PREPARATION METHODS AND USE” (TIANJIN JIKUN MEDICAL TECHNOLOGY CO., LTD., priority 2022, published 2024):

What was measured:
Assay type in all cases: in vivo
Tumor cells B16F10 = test: Anti-tumor effect in B16F10 tumor-bearing mice (alone and combined with PD-1 monoclonal antibody); settings: female C57BL/6 mice; by tumor weight vs control group; compounds 150 mg/kg orally every day; PD-1 monoclonal antibody 10 mg/kg intraperitoneally every three days; combination: both
Text: (§1) Tumor cells B16F10, LLC, PAN02, H22, CT26, MFC, and GL261 (purchased from Biological Industries) in good growth status were collected, separately washed twice with 1×PBS, and a total number of the cells was counted with a cell counter, and a cell solution was separately diluted with 1×PBS to obtain a cell suspension of 1×10^7 cells/mL. The mice used in this experiment were purchased from Beijing Vital River Laboratory (Beijing, China). The above different types of tumor cells were inoculated into different types of mice to produce corresponding tumor-bearing mice, and the correspondences are as follows. Tumor cell B16F10 corresponds to female mice C57BL/6 aged 6-8 weeks; Tumor cell LLC corresponds to female mice Balb/c aged 6-8 weeks; Tumor cell PAN02 corresponds to female mice C57BL/6J aged 6-8 weeks; Tumor cell H22 corresponds to female mice C57BL/6 aged 6-8 weeks; Tumor cell CT26 corresponds to female mice Balb/c aged 6-8 weeks; Tumor cell MFC corresponds to female mice BALB/c-nu/nu aged 6-8 weeks; and Tumor cell GL261 corresponds to female mice C57BL/6 aged 6-8 weeks. […] After the experiment was completed, the mice were euthanized, tumor tissues thereof were collected, and volume and weight of the tumor tissues were tested to calculate a tumor inhibition rate. Tumor inhibition rate=(1-tumor weight of treatment group/tumor weight of control group)×100%

Tumor cells LLC = test: Anti-tumor effect in LLC tumor-bearing mice (alone and combined with PD-1 monoclonal antibody); settings: female Balb/c mice; by tumor weight vs control group; compounds 150 mg/kg orally every day; PD-1 monoclonal antibody 10 mg/kg intraperitoneally every three days; combination: both
Text: as §1

Tumor cells PAN02 = test: Anti-tumor effect in PAN02 tumor-bearing mice (alone and combined with PD-1 monoclonal antibody); settings: for Tumor inhibition rate PAN02: female C57BL/6J mice, by tumor weight vs control group, compounds 150 mg/kg orally every day, PD-1 monoclonal antibody 10 mg/kg intraperitoneally every three days, combination: both
Text: as §1

Tumor cells H22 = test: Anti-tumor effect in H22 tumor-bearing mice (alone and combined with PD-1 monoclonal antibody); settings: female C57BL/6 mice; by tumor weight vs control group; compounds 150 mg/kg orally every day; PD-1 monoclonal antibody 10 mg/kg intraperitoneally every three days; combination: both
Text: as §1

Tumor cells CT26 = test: Anti-tumor effect in CT26 tumor-bearing mice (alone and combined with PD-1 monoclonal antibody); settings: female Balb/c mice; by tumor weight vs control group; compounds 150 mg/kg orally every day; PD-1 monoclonal antibody 10 mg/kg intraperitoneally every three days; combination: both
Text: as §1

Tumor cells MFC = test: Anti-tumor effect in MFC tumor-bearing mice (alone and combined with PD-1 monoclonal antibody); settings: female BALB/c-nu/nu mice; by tumor weight vs control group; compounds 150 mg/kg orally every day; PD-1 monoclonal antibody 10 mg/kg intraperitoneally every three days; combination: both
Text: as §1

Tumor cells GL261 = test: Anti-tumor effect in GL261 tumor-bearing mice (alone and combined with PD-1 monoclonal antibody); settings: for Tumor inhibition rate GL261: female C57BL/6 mice, by tumor weight vs control group, compounds 150 mg/kg orally every day, PD-1 monoclonal antibody 10 mg/kg intraperitoneally every three days, combination: both
Text: as §1

[1] = combined administration with the PD-1 monoclonal antibody (text summary of Table 1)

| SMILES | Tumor inhibition rate B16F10 (Tumor cells B16F10) [%] | Tumor inhibition rate LLC (Tumor cells LLC) [%] | Tumor inhibition rate PAN02 (Tumor cells PAN02) [%] | Tumor inhibition rate H22 (Tumor cells H22) [%] | Tumor inhibition rate CT26 (Tumor cells CT26) [%] | Tumor inhibition rate MFC (Tumor cells MFC) [%] | Tumor inhibition rate GL261 (Tumor cells GL261) [%] | tumor inhibition rate, PAN02 cells (Tumor cells PAN02; [1]) | tumor inhibition rate, GL261 cells (Tumor cells GL261; [1]) |
| --- | --- | --- | --- | --- | --- | --- | --- | --- | --- |
| C[C@]12CC[C@@H](O)[C@]3(CO3)[C@@H]1C[C@@H]1C(CN(CCO)CCO)C(=O)O[C@@H]1C2.O=C(O)/C=C/C(=O)O (stereo partly drawn) [Compound 5] | 24 | 26 | 19 | 31 | 52 | 44 | 19 |  |  |
| CN(CCCO)CC1C(=O)O[C@@H]2C[C@@]3(C)CC[C@@H](O)[C@]4(CO4)[C@@H]3C[C@H]12.O=C(O)/C=C/C(=O)O (stereo partly drawn) [Compound 6] | 31 | 29 | 31 | 39 | 41 | 52 | 29 | up to 89% | up to 89% |
| CN(CCO)CC1C(=O)O[C@@H]2C[C@@]3(C)CC[C@@H](O)[C@]4(CO4)[C@@H]3C[C@H]12.O=C(O)/C=C/C(=O)O (stereo partly drawn) [Compound 4] | 23 | 24 | 22 | 26 | 31 | 27 | 23 |  |  |
| CN(C)CC1C(=O)O[C@@H]2C[C@@]3(C)CC[C@@H](O)[C@]4(CO4)[C@@H]3C[C@H]12.O=C(O)/C=C/C(=O)O (stereo partly drawn) [Control compound 7, reference compound] | 41 | 44 | 43 | 52 | 60 | 38 | 39 |  |  |
